The results in this text go back to US20250145665A1, “MACROCYCLIC PEPTIDES USEFUL AS MODULATORS OF TNF ALPHA” (Bristol-Myers Squibb Company, priority 2023, published 2025).

Each structure is given as a SMILES string. Positions of bridges follow the written chain, without caps; N, C: chain ends. Non-standard residues stand in square brackets, D forms with d. Residues, ends and D or L forms follow the SMILES beside them. Bip(4'-COOH) = N[C@@H](Cc1ccc(-c2ccc(C(=O)O)cc2)cc1)C(=O)O; Bip(4'-NHAc) = CC(=O)Nc1ccc(-c2ccc(C[C@H](N)C(=O)O)cc2)cc1; Ala(morpholin-4-yl) = N[C@@H](CN1CCOCC1)C(=O)O; Phe(3-CONH2) = NC(=O)c1cccc(C[C@H](N)C(=O)O)c1; Bip = N[C@@H](Cc1ccc(-c2ccccc2)cc1)C(=O)O; 2Pal = N[C@@H](Cc1ccccn1)C(=O)O; 3Pal = N[C@@H](Cc1cccnc1)C(=O)O; Cha = N[C@@H](CC1CCCCC1)C(=O)O; Chg = N[C@H](C(=O)O)C1CCCCC1; Sar = CNCC(=O)O

The target in the test is TNFα (Homo sapiens, UniProt P01375). Description: TNF-Induced HEK-Blue Assay. The conditions noted are these: HEK-Blue-CD40L cells, NF-kB-driven secreted alkaline phosphatase reporter; TNFα 0.5 ng/ml; 18 h; read-out: TNF induced HEK-Blue assay IC50 value. It counts as cell-based.
TNFα, sequence (P01375 77-233 limits assumed): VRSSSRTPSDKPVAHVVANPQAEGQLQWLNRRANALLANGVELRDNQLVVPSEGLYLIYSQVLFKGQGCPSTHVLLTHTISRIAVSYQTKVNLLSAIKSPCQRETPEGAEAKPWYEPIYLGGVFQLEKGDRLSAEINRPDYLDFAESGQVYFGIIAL
With `CC(=O)Nc1ccc(-c2ccc(C[C@@H]3NC(=O)[C@H](Cc4ccc(-c5ccccc5)cc4)NC(=O)[C@H](CN4CCOCC4)NC(=O)CSC[C@@H](C(=O)NCC(N)=O)NC(=O)[C@H](CC(C)C)NC(=O)[C@H](Cc4ccccn4)NC(=O)[C@H](C(C)C)NC(=O)[C@@H]4CCCN4C(=O)[C@H](C(C)C)NC(=O)[C@@H](CCCNC(=N)N)NC(=O)[C@H](CC(=O)O)NC(=O)[C@H](Cc4ccc(O)cc4)NC(=O)CN(C)C3=O)cc2)cc1` [Example 222] ({CH2CO}-[Ala(morpholin-4-yl)][Bip][Bip(4'-NHAc)][Sar]YD[dR]VPV[2Pal]LCG-NH2; thioether N-13), the IC50 was below 50 nM. The same measure for `CC(=O)Nc1ccc(-c2ccc(C[C@@H]3NC(=O)[C@H](Cc4ccc(-c5ccccc5)cc4)NC(=O)[C@H](CN4CCOCC4)NC(=O)CSC[C@@H](C(=O)NCC(N)=O)NC(=O)[C@H](CC(C)C)NC(=O)[C@H](Cc4cccnc4)NC(=O)[C@H](C(C)C)NC(=O)[C@@H]4CCCN4C(=O)[C@H](C(C)C)NC(=O)[C@@H](CCCNC(=N)N)NC(=O)[C@H](CC(=O)O)NC(=O)[C@H](Cc4ccc(O)cc4)NC(=O)CN(C)C3=O)cc2)cc1` [Example 223] ({CH2CO}-[Ala(morpholin-4-yl)][Bip][Bip(4'-NHAc)][Sar]YD[dR]VPV[3Pal]LCG-NH2; thioether N-13): below 50 nM; for `CC(=O)Nc1ccc(-c2ccc(C[C@@H]3NC(=O)[C@H](Cc4ccc(-c5ccc(C(=O)O)cc5)cc4)NC(=O)[C@H](CN4CCOCC4)NC(=O)CSC[C@@H](C(=O)NCC(N)=O)NC(=O)[C@H](CC(C)C)NC(=O)[C@H](Cc4ccccc4)NC(=O)[C@H](C(C)C)NC(=O)[C@@H]4CCCN4C(=O)[C@H](C(C)C)NC(=O)[C@@H](CCCNC(=N)N)NC(=O)[C@H](CC(=O)O)NC(=O)[C@H](Cc4ccccc4)NC(=O)CN(C)C3=O)cc2)cc1` [Example 225] ({CH2CO}-[Ala(morpholin-4-yl)][Bip(4'-COOH)][Bip(4'-NHAc)][Sar]FD[dR]VPVFLCG-NH2; thioether N-13): 50 to 200 nM. The same measure for `CC(=O)Nc1ccc(-c2ccc(C[C@@H]3NC(=O)[C@H](Cc4ccc(-c5ccc(C(=O)O)cc5)cc4)NC(=O)[C@H](CN4CCOCC4)NC(=O)CSC[C@@H](C(=O)NCC(N)=O)NC(=O)[C@H](CC(C)C)NC(=O)[C@H](CCCNC(=N)N)NC(=O)[C@H](C(C)C)NC(=O)[C@@H]4CCCN4C(=O)[C@H](CC(N)=O)NC(=O)[C@@H](CCCNC(=N)N)NC(=O)[C@H](CC(=O)O)NC(=O)[C@H](Cc4ccccn4)NC(=O)CN(C)C3=O)cc2)cc1` [Example 226] ({CH2CO}-[Ala(morpholin-4-yl)][Bip(4'-COOH)][Bip(4'-NHAc)][Sar][2Pal]D[dR]NPVRLCG-NH2; thioether N-13): 50 to 200 nM; for `CC(=O)Nc1ccc(-c2ccc(C[C@@H]3NC(=O)[C@H](Cc4ccc(-c5ccccc5)cc4)NC(=O)[C@H](CN4CCOCC4)NC(=O)CSC[C@@H](C(=O)NCC(N)=O)NC(=O)[C@H](CC(C)C)NC(=O)[C@H](Cc4ccccc4)NC(=O)[C@H](C(C)C)NC(=O)[C@@H]4CCCN4C(=O)[C@H](C(C)C)NC(=O)[C@@H](CCCNC(=N)N)NC(=O)[C@H](CC(=O)O)NC(=O)[C@H](Cc4ccccn4)NC(=O)CN(C)C3=O)cc2)cc1` [Example 227] ({CH2CO}-[Ala(morpholin-4-yl)][Bip][Bip(4'-NHAc)][Sar][2Pal]D[dR]VPVFLCG-NH2; thioether N-13): 50 to 200 nM. In the case of `CC(=O)Nc1ccc(-c2ccc(C[C@@H]3NC(=O)[C@H](Cc4ccc(-c5ccccc5)cc4)NC(=O)[C@H](CN4CCOCC4)NC(=O)CSC[C@@H](C(=O)NCC(N)=O)NC(=O)[C@H](CC(C)C)NC(=O)[C@H](Cc4ccccn4)NC(=O)[C@H](C(C)C)NC(=O)[C@@H]4CCCN4C(=O)[C@H](C(C)C)NC(=O)[C@@H](CCCNC(=N)N)NC(=O)[C@H](CC(=O)O)NC(=O)[C@H](Cc4ccccc4)NC(=O)CN(C)C3=O)cc2)cc1` [Example 228] ({CH2CO}-[Ala(morpholin-4-yl)][Bip][Bip(4'-NHAc)][Sar]FD[dR]VPV[2Pal]LCG-NH2; thioether N-13), the IC50 is below 50 nM. Take `CC(C)C[C@@H]1NC(=O)[C@H](CCCNC(=N)N)NC(=O)[C@H](C(C)C)NC(=O)[C@@H]2CCCN2C(=O)[C@H](C(C)C)NC(=O)[C@@H](CCCNC(=N)N)NC(=O)[C@H](CC(=O)O)NC(=O)[C@H](Cc2cnc[nH]2)NC(=O)CN(C)C(=O)[C@H](Cc2ccc(-c3ccccc3)cc2)NC(=O)[C@H](Cc2ccc(-c3ccccc3)cc2)NC(=O)[C@H](CN2CCOCC2)NC(=O)CSC[C@@H](C(=O)NCC(N)=O)NC1=O` [Example 229] ({CH2CO}-[Ala(morpholin-4-yl)][Bip][Bip][Sar]HD[dR]VPVRLCG-NH2; thioether N-13): the IC50 was 50 to 200 nM.

With `CC(C)C[C@@H]1NC(=O)[C@H](CCCNC(=N)N)NC(=O)[C@H](C2CCCCC2)NC(=O)[C@@H]2CCCN2C(=O)[C@H](C(C)C)NC(=O)[C@@H](CCCNC(=N)N)NC(=O)[C@H](CC(=O)O)NC(=O)[C@H](Cc2cnc[nH]2)NC(=O)CN(C)C(=O)[C@H](Cc2ccc(-c3ccccc3)cc2)NC(=O)[C@H](Cc2ccc(-c3ccccc3)cc2)NC(=O)[C@H](CN2CCOCC2)NC(=O)CSC[C@@H](C(=O)NCC(N)=O)NC1=O` [Example 230] ({CH2CO}-[Ala(morpholin-4-yl)][Bip][Bip][Sar]HD[dR]VP[Chg]RLCG-NH2; thioether N-13), the IC50 fell in the range of 50 to 200 nM.

With `CC(C)C[C@@H]1NC(=O)[C@H](Cc2ccccc2)NC(=O)[C@H](C(C)C)NC(=O)[C@@H]2CCCN2C(=O)[C@H](C(C)C)NC(=O)[C@@H](CCCNC(=N)N)NC(=O)[C@H](CC(=O)O)NC(=O)[C@H](Cc2cnc[nH]2)NC(=O)CN(C)C(=O)[C@H](Cc2ccc(-c3ccccc3)cc2)NC(=O)[C@H](Cc2ccc(-c3ccccc3)cc2)NC(=O)[C@H](CN2CCOCC2)NC(=O)CSC[C@@H](C(=O)NCC(N)=O)NC1=O` [Example 231] ({CH2CO}-[Ala(morpholin-4-yl)][Bip][Bip][Sar]HD[dR]VPVFLCG-NH2; thioether N-13), the IC50 was 50 to 200 nM.

In the case of `CC(=O)Nc1ccc(-c2ccc(C[C@@H]3NC(=O)[C@H](Cc4ccc(-c5ccccc5)cc4)NC(=O)[C@H](CN4CCOCC4)NC(=O)CSC[C@@H](C(=O)NCC(N)=O)NC(=O)[C@H](CC(C)C)NC(=O)[C@H](CCCNC(=N)N)NC(=O)[C@H](C4CCCCC4)NC(=O)[C@@H]4CCCN4C(=O)[C@H](C(C)C)NC(=O)[C@@H](CCCNC(=N)N)NC(=O)[C@H](CC(=O)O)NC(=O)[C@H](Cc4cnc[nH]4)NC(=O)CN(C)C3=O)cc2)cc1` [Example 232] ({CH2CO}-[Ala(morpholin-4-yl)][Bip][Bip(4'-NHAc)][Sar]HD[dR]VP[Chg]RLCG-NH2; thioether N-13), the IC50 was below 50 nM. For `CC(=O)Nc1ccc(-c2ccc(C[C@@H]3NC(=O)[C@H](Cc4ccc(-c5ccccc5)cc4)NC(=O)[C@H](CC4CCCCC4)NC(=O)CSC[C@@H](C(=O)NCC(N)=O)NC(=O)[C@H](CC(C)C)NC(=O)[C@H](Cc4cccc(C(N)=O)c4)NC(=O)[C@H](C(C)C)NC(=O)[C@@H]4CCCN4C(=O)[C@H](C(C)C)NC(=O)[C@@H](CCCNC(=N)N)NC(=O)[C@H](CC(=O)O)NC(=O)[C@H](Cc4ccccn4)NC(=O)CN(C)C3=O)cc2)cc1` [Example 233] ({CH2CO}-[Cha][Bip][Bip(4'-NHAc)][Sar][2Pal]D[dR]VPV[Phe(3-CONH2)]LCG-NH2; thioether N-13) the value was below 50 nM.
